Source: US12582120B2, “Compositions with fatty acids and optional cationic compounds and methods of use” (priority 2021, dated 2026)
Several values for one entry are separate records, joined by “and”; a condition that tells them apart may be missing. Equal entries are not always repeated.

What was measured:
[1] = tested on: Acetobacter aceti (ATCC 15973); assay: Example 1 preliminary screen of antimicrobial efficacy, Acetobacter; assay type: cell-based; settings: 60 s, 50 °C
Experimental: (§1) Example 1 was a preliminary screen of various compositions for antimicrobial efficacy against acetobacter and lactobacillus and yeast. For this example, the compositions were applied for 1 minute at 50° C. or 60° C. to Acetobacter aceti (ATCC 15973), Lactobacillus brevis (ATCC 14869), or Saccharomyces cerevisiae (ATCC 834).

[2] = tested on: Lactobacillus brevis (ATCC 14869); assay: Example 1 preliminary screen of antimicrobial efficacy, Lactobacillus; assay type: cell-based
Description: Example 1 was a preliminary screen of various compositions for antimicrobial efficacy against acetobacter and lactobacillus and yeast. […]

[3] = tested on: Saccharomyces cerevisiae (ATCC 834); assay: Example 1 preliminary screen of antimicrobial efficacy, yeast; assay type: cell-based; settings: pH 9, 60 s, 50 °C
Experimental: as §1

[4] = tested on: Acetobacter aceti (ATCC 15973); assay: Example 3 suspension test of nonanoic acid alone, Acetobacter; assay type: cell-based; settings: for % reduction / Log Reduction: Nonanoic Acid 200 ppm, pH 9
Experimental: (§2) Example 3 tested concentrations of nonanoic acid alone for antimicrobial efficacy against acetobacter and lactobacillus. For this example, the compositions were applied for the recorded time and temperature to suspensions of Acetobacter aceti (ATCC 15973), or Lactobacillus brevis (ATCC 14869). After the period of time, a neutralizer was added to quench the reaction. The remaining solution was plated and counted for colonies and compared to the untreated control. The log reduction was recorded in the table below. The information in the column labeled “solution” describes the solution environment that was used for a test. For example, the solution may have included 0.5% or 1% sodium bicarbonate. The solution may have included multi-day old used clean-in-place solution from a plant that included sodium carbonate (labeled “used CIP”). The pH of the solution was adjusted with sodium carbonate.

[5] = tested on: Lactobacillus brevis (ATCC 14869); assay: Example 3 suspension test of nonanoic acid alone, Lactobacillus; assay type: cell-based; settings: for % reduction / Log Reduction: Nonanoic Acid 200 ppm
Experimental: as §2

[6] = known antimicrobial agents; cited from earlier work
[7] = 60 s, 50 °C, 1% sodium bicarbonate
[8] = various times, temperatures, pHs, and solution conditions (Table 3)
[9] = pH 8.5, 60 s, 50 °C, 1% sodium bicarbonate
[10] = pH 8.5, 600 s, 50 °C, 1% sodium bicarbonate
[11] = pH 8.5, 2 days, 20 °C, used CIP
[12] = pH 8.7, 60 s, 45 °C, 0.5% sodium bicarbonate
[13] = pH 8.7, 120 s, 45 °C, 0.5% sodium bicarbonate
[14] = pH 8.7, 300 s, 45 °C, 0.5% sodium bicarbonate
[15] = pH 8.7, 600 s, 45 °C, 0.5% sodium bicarbonate
[16] = pH 9, 60 s, 50 °C, 1% sodium bicarbonate
[17] = pH 10.5, 60 s, 50 °C, 1% sodium bicarbonate
[18] = pH 10.5, 600 s, 50 °C, used CIP
[19] = pH not adjusted, 60 s, 45 °C, 0.5% sodium bicarbonate
[20] = pH not adjusted, 120 s, 45 °C, 0.5% sodium bicarbonate
[21] = pH not adjusted, 300 s, 45 °C, 0.5% sodium bicarbonate
[22] = pH not adjusted, 600 s, 45 °C, 0.5% sodium bicarbonate

CCCCCCCCCCCC(=O)N[C@@H](CCCN=C(N)N)C(=O)OCC [Ethyl Lauroyl Arginate, ethyl lauroyl arginate]
% reduction ([1]; Ethyl Lauroyl Arginate 2.5 ppm, pH 9): 99.891% | % reduction ([1]; Ethyl Lauroyl Arginate 5 ppm, pH 9): 99.981% and 99.922% | % reduction ([1]; Ethyl Lauroyl Arginate 25 ppm, pH 4): 32.759% | % reduction ([1]; Ethyl Lauroyl Arginate 25 ppm, pH 9): 99.808% | % reduction ([1]; Ethyl Lauroyl Arginate 25 ppm, pH 10): 99.241% | % reduction ([1]; Ethyl Lauroyl Arginate 50 ppm, pH 4): 98.491% | % reduction ([1]; Ethyl Lauroyl Arginate 50 ppm, pH 10): 99.763% | % reduction ([1]; Ethyl Lauroyl Arginate 200 ppm, pH 7): 99.999% | % reduction ([1]; Ethyl Lauroyl Arginate 200 ppm, pH 10): 99.998% | % reduction ([2]; Ethyl Lauroyl Arginate 5 ppm, pH 4, 60 s, 50 °C): 98.844% | % reduction ([2]; Ethyl Lauroyl Arginate 5 ppm, pH 9, 60 s, 50 °C): 99.999% | % reduction ([2]; Ethyl Lauroyl Arginate 25 ppm, pH 4, 50 s, 60 °C): 99.999% | % reduction ([2]; Ethyl Lauroyl Arginate 25 ppm, pH 10, 50 s, 60 °C): 100.000% | % reduction ([2]; Ethyl Lauroyl Arginate 50 ppm, pH 4, 50 s, 60 °C): 100.000% | % reduction ([2]; Ethyl Lauroyl Arginate 50 ppm, pH 10, 50 s, 60 °C): 100.000% | % reduction ([3]; Ethyl Lauroyl Arginate 5 ppm): 99.888%

CCCCCCCCC(=O)O [Nonanoic Acid, nonanoic acid]
% reduction ([1]; Nonanoic Acid 125 ppm, pH 9): 99.998% | % reduction ([2]; Nonanoic Acid 125 ppm, pH 4, 60 s, 50 °C): 100.000% | % reduction ([2]; Nonanoic Acid 125 ppm, pH 9, 60 s, 50 °C): 96.125% | % reduction ([3]; Nonanoic Acid 125 ppm): 99.954% | % reduction [4, 7]: 99.993% | Log Reduction [4, 7]: 4.18 | % reduction ([4]; 2 days, 20 °C, used CIP): 97.846% | Log Reduction ([4]; 2 days, 20 °C, used CIP): 1.67 | reducing gram negative bacteria [4, 8]: effective | % reduction [5, 9]: 99.636% | Log Reduction [5, 9]: 2.44 | % reduction [5, 10]: 100.000% | Log Reduction [5, 10]: 6.90 | % reduction ([5]; pH 8.5, 600 s, 50 °C, used CIP): 100.000% | Log Reduction ([5]; pH 8.5, 600 s, 50 °C, used CIP): 7.04 | % reduction [5, 11]: 100.000% | Log Reduction [5, 11]: 7.20 | % reduction [5, 12]: 99.900% | Log Reduction [5, 12]: 3.00 | % reduction [5, 13]: 100.000% | Log Reduction [5, 13]: 7.64 | % reduction [5, 14]: 100.000% | Log Reduction [5, 14]: 7.64 | % reduction [5, 15]: 100.000% | Log Reduction [5, 15]: 7.64 | % reduction [5, 16]: 99.736% | Log Reduction [5, 16]: 2.58 | % reduction ([5]; pH 9, 600 s, 50 °C, used CIP): 100.000% | Log Reduction ([5]; pH 9, 600 s, 50 °C, used CIP): 7.04 | % reduction ([5]; pH 9, 2 days, 20 °C, used CIP): 100.000% | Log Reduction ([5]; pH 9, 2 days, 20 °C, used CIP): 7.20 | % reduction [5, 17]: 100.000% | Log Reduction [5, 17]: 7.04 | % reduction [5, 18]: 100.000% | Log Reduction [5, 18]: 7.04 | % reduction [5, 19]: 99.905% | Log Reduction [5, 19]: 3.02 | % reduction [5, 20]: 100.000% | Log Reduction [5, 20]: 6.34 | % reduction [5, 21]: 100.000% | Log Reduction [5, 21]: 7.64 | % reduction [5, 22]: 100.000% | Log Reduction [5, 22]: 7.64 | reducing gram positive bacteria [5, 8]: effective

CCCCCCCC(=O)O [Octanoic Acid, octanoic acid]
% reduction ([1]; Octanoic Acid 100 ppm, pH 4): 0.000% | % reduction ([1]; Octanoic Acid 100 ppm, pH 5): 54.967% | % reduction ([1]; Octanoic Acid 100 ppm, pH 9): 99.999% and 99.998% | % reduction ([1]; Octanoic Acid 125 ppm, pH 9): 99.998% | % reduction ([1]; Octanoic Acid 150 ppm, pH 4): 86.207% | % reduction ([1]; Octanoic Acid 200 ppm, pH 4): 99.998% and 99.996% | % reduction ([1]; Octanoic Acid 200 ppm, pH 7): 99.993% | % reduction ([2]; Octanoic Acid 125 ppm, pH 4, 60 s, 50 °C): 100.000% | % reduction ([2]; Octanoic Acid 125 ppm, pH 9, 60 s, 50 °C): 97.813% | % reduction ([2]; Octanoic Acid 150 ppm, pH 4, 50 s, 60 °C): 100.000% | % reduction ([2]; Octanoic Acid 200 ppm, pH 4, 50 s, 60 °C): 100.000% | % reduction ([3]; Octanoic Acid 125 ppm): 100.000%

OO [hydrogen peroxide]
Typical Antimicrobial pH Range [6]: <5

CC(=O)OO [peracetic acid]
Typical Antimicrobial pH Range [6]: <7

CCCCCCCC(=O)OO [peroctanoic acid]
Typical Antimicrobial pH Range [6]: <5

acidified sodium chlorite
Typical Antimicrobial pH Range [6]: 2.5-4
